Assays:
A375 cells [1] = test: AlamarBlue viability assay, A375 cells; format: cell-based, human; conditions: 32 h (FIG. 8B)
Protocol: (§1) The test compositions in Table 1 were tested first for their ability to induce cytotoxicity in dose response curves using an AlamarBlue assay using two cancer cell lines.
(§2) The method used for the viability assay follows. Cells were seeded in 96-well plates for measuring cell growth during treatment by the tested compound using the AlamarBlue fluorescence assay (Biosource International, Inc., Camarillo, Calif.). AlamarBlue (resazurin) is a soluble, non-toxic dye used to monitor the functional electron transport chain of a viable cell by reduction of the dye from its oxidized, non-fluorescent (blue) state to the reduced, fluorescent (pink) state (resorufin). AlamarBlue was added six hours prior to the desired time point in an amount equal to 10% (v/v) of the culture volume, and the plates were returned to the incubator. At the end of the six hour incubation, the amount of AlamarBlue reduction was measured using a fluorometric plate reader ([…]). The plate reader was blanked by reading the fluorescence of cell free medium supplemented with AlamarBlue (States et al., Toxicol. Appl. Pharmacol., Vol. 180, pages 83-91 (2002)). Data are reported as a percentage of the untreated control. Three independent experiments were analyzed and results are shown as average±standard deviation.

HeLa cells [2] = test: AlamarBlue viability assay, HeLa cells; format: cell-based, human; conditions: for effectiveness at reducing viability (Alamar Blue), rank among T-8, T-13, T-14: 32 h (FIG. 8A)
Protocol: as §1, §2

SK-MEL-28 cells [3] = test: AlamarBlue viability assay, SK-MEL-28 cells; format: cell-based, human; conditions: 32 h (FIG. 10)
Protocol: as §2

GM0637 cells [4] = test: AlamarBlue viability assay, GM0637 cells; format: cell-based, human; conditions: 32 h (FIG. 10)
Protocol: as §2

tGM24 cells [5] = test: AlamarBlue viability assay, tGM24 cells; format: cell-based, human; conditions: 32 h (FIG. 10)
Protocol: as §2

HeLa cells [6] = test: Mitotic index and mitotic catastrophe index determination (mitotic spread assay), HeLa cells; format: cell-based, human; conditions: for percent of nuclei present as clean mitotic spreads (mitotic index) / percentage of nuclei presenting as mitotic catastrophe: 60 μM T-8 or 10 μM T-3, 24 h, vs DMSO control, p<0.05 (FIG. 4)
Protocol: (§3) Cells were harvested for mitotic index analysis by trypsinization. Media, wash, and trypsinized cells were collected together and centrifuged to pellet all the cells. Cells were resuspended in 150 mL serum free media and 2.5 mL 0.4% KCl was added. The suspension was incubated for 10 minutes at 37° C. Methanol:acetic acid fixative solution (3:1, v/v) was then added to 2% (v/v) and cells were collected by centrifugation. Cells were resuspended in 2.5 mL fixative solution and fixed at room temperature for 20 minutes. Samples were centrifuged; pellets were resuspended in 0.5 mL fixative and chilled on ice for one hour. Aliquots of the suspensions were dropped onto slides (two slides per sample), air dried, and stained with Wright Giemsa solution (States et al., Toxicol. Appl. Pharmacol., Vol. 180, pages 83-91 (2002); Taylor et al., J. Pharmacol. Exp. Ther., Vol. 318, pages 142-151 (2006)). Slides were examined under a microscope and at least 200 cells were counted on each slide for determination of mitotic index and mitotic catastrophe index. Only cells with distinct interphase nuclei appearance (panel Q from FIG. 2), metaphase spread appearance (panel S from FIG. 2), or mitotic catastrophe appearance (panel T from FIG. 2) were counted. Mitotic index and mitotic catastrophe index were determined using the following formula: Mitotic index=(cells with mitotic spread appearance as exemplified in panel S of FIG. 2)/(total number of counted cells) Mitotic catastrophe index=(cells with mitotic catastrophe appearance as exemplified in panel T of FIG. 2)/(total number of counted cells)
Three independent experiments were analyzed. DAPI stain in mounting media (Molecular Probes) added directly to the slides was used to identify DNA in interphase nuclei, mitotic spreads, mitotic catastrophe, and nuclear fragmentation by fluorescence microscopy.
Test compositions T-1 to T-9 in Table 1 were tested for their ability to induce mitotic arrest using a mitotic spread assay because it can also be used to score for mitotic catastrophe (Taylor et al., J. Pharmacol. Exp. Ther., Vol. 318, Pages 142-151 (2006); Taylor et al., Toxicol. Appl. Pharmacol., Vol. 230, Pages 235-246 (2008)). […] In these tests, a single concentration of each test composition was tested based on cytotoxicity results of FIG. 1 and on results of observational studies to determine the dose and time course of morphological changes induced (data not shown). The concentrations chosen were the minimum concentrations required to induce <10% survival and morphological changes at 16-24 hours.

HeLa cells [7] = test: Visual assessment of cytotoxicity, HeLa cells; format: cell-based, human; conditions: for rounded up cells in mitosis (visual assessment): HeLa cells (paclitaxel sensitive), 24-well plate (FIG. 5A)
Text: (§4) The cytotoxicity of the compounds were initially assessed visually and by photomicroscopy. Visual inspection of dose response experiments over a protracted time course provides valuable information on the responses of cells to the treatments. Phase contrast microscopy allows one to assess whether cells are undergoing mitotic arrest and/or apoptosis by their altered morphology. Mitotic cells rounded up with smooth membranes and often condensed chromosomes aligned at a metaphase plate were clearly visible. […] Cells were plated in 24-well plates and allowed to attach and stabilize overnight. Cells were then treated with compounds in dose response and photomicrographs were taken at various time points over 2 days. Photographs were assembled in composite figures showing dose response at a given time point.

SK-MEL-28 cells [8] = test: Visual assessment of cytotoxicity, SK-MEL-28 cells; format: cell-based, human; conditions: for rounded up cells in mitosis (visual assessment): SK-MEL-28 cells (paclitaxel resistant), 24-well plate (FIG. 5B)
Text: as §4

GM0637 cells [9] = test: Visual assessment of cytotoxicity, GM0637 cells; format: cell-based; conditions: GM0637 (SV40-transformed human skin fibroblasts); 49 h (FIG. 9)
Text: as §4

tGM24 cells [10] = test: Visual assessment of cytotoxicity, tGM24 cells; format: cell-based, human
Text: as §4

HeLa cells [11] = test: Clonogenic viability assay, HeLa cells; format: cell-based, human; conditions: for colony formation (clonogenic cytotoxicity): Hela cells (paclitaxel sensitive), colonies counted after 10 days (FIG. 6A)
Protocol: (§5) Clonogenic assays are used to determine the impact of a test compositions on the ability of cells to replicate. Cells are plated at cloning densities (100 and 500 cells per well in a 6-well plate; 3 wells of each cell number), and allowed to attach and stabilize overnight. Cells are then treated in dose-response experiments with test composition(s) (one concentration of test composition per plate) and incubated for 7-10 days to allow colonies of >30 cells to form. Colonies are stained with crystal violet and counted. Colony forming ability is then calculated as a percent of control by setting the mean number of colonies per well of cells treated with vehicle (0.1% DMSO) equal to 100 percent.

SK-MEL-28 cells [12] = test: Clonogenic viability assay, SK-MEL-28 cells; format: cell-based, human; conditions: SK-MEL-28 cells (paclitaxel resistant); colonies counted after 10 days (FIG. 6B)
Protocol: as §5

A375 cells [13] = test: Mitotic index and mitotic catastrophe index determination (mitotic spread assay), A375 cells; format: cell-based, human; conditions: selected concentrations (1-10 μM), eighteen hours, among T-1 to T-9 (FIG. 3)
Protocol: as §3, with “Aliquots of the suspensions were dropped onto slides (two slides per sample), air dried, and stained with Wright Giemsa solution (States et al., Toxicol. Appl. Pharmacol., Vol. 180, pages 83-91 (2002); Taylor et al., J. Pharmacol. Exp. Ther., Vol. 318, pages 142-151 (2006)).” left out
Three independent experiments were analyzed. […]

[14] = tGM24 normal diploid cells, 49 h (FIG. 9)

Structure (SMILES) | effectiveness at reducing viability (Alamar Blue), rank among T-8, T-13, T-14 (A375 cells [1]) | effectiveness at reducing viability (Alamar Blue), rank among T-8, T-13, T-14 (HeLa cells [2]) | colony formation (clonogenic cytotoxicity) (HeLa cells [11]) | colony formation (clonogenic cytotoxicity) (SK-MEL-28 cells [12]) | rounded up cells in mitosis (visual assessment) (HeLa cells [7]) | rounded up cells in mitosis (visual assessment) (SK-MEL-28 cells [8]) | also measured
Cl.OC(CNC1CCCC1)COCCOc1ccc(Br)cc1 (racemic) [T-8] | most effective | most effective | decreased colony formation | decreased colony formation |  |  | cytotoxicity (Alamar Blue), sensitivity compared across cell lines (HeLa cells [2]; 32 h (FIG. 10)): most effective; cytotoxicity (Alamar Blue), sensitivity compared across cell lines (SK-MEL-28 cells [3]): moderate sensitivity; cytotoxicity (Alamar Blue), sensitivity compared across cell lines (GM0637 cells [4]): moderate sensitivity; cytotoxicity (Alamar Blue), sensitivity compared across cell lines (tGM24 cells [5]): relatively resistant; percent of nuclei present as clean mitotic spreads (mitotic index) (HeLa cells [6]): decreased; percentage of nuclei presenting as mitotic catastrophe (HeLa cells [6]): higher percentage; accumulation of mitotic cells and apoptotic cells (visual assessment) (HeLa cells [7]; HeLa (paclitaxel sensitive human cervical carcinoma), 49 h (FIG. 9)): accumulated; accumulation of mitotic cells and apoptotic cells (visual assessment) (SK-MEL-28 cells [8]; SK-MEL-28 (paclitaxel resistant human melanoma), 49 h (FIG. 9)): accumulated; accumulation of mitotic cells and apoptotic cells (visual assessment) (GM0637 cells [9]): accumulated; selectivity for carcinoma cells and transformed cells compared to normal diploid cells (tGM24 cells [10]; SK-MEL-28, HeLa, GM0637 vs tGM24, visual assessment (FIG. 9)): selectivity of T-8 for carcinoma cells and transformed cells; accumulation of mitotic cells and apoptotic cells (visual assessment) (tGM24 cells [10]; tGM24 (telomerase immortalized human diploid skin fibroblasts), 49 h (FIG. 9)): not in tGM24; increase in cell number (visual assessment) (tGM24 cells [10]; tGM24, 49 h (FIG. 9)): less apparent; cell death of normal diploid cells (visual assessment) (tGM24 cells [10]; [14]): not observed; growth of normal diploid cells (visual assessment) (tGM24 cells [10]; [14]): appeared to be inhibited
CCc1ccc(OCCOCC(O)CNC2CCCC2)cc1.Cl (racemic) [T-13] | followed by T-13 | followed by T-13 |  |  |  |  | 
CC(C)NCC(O)COCCOc1ccc(Cl)cc1.Cl (racemic) [T-14] | least efficacy | least efficacy |  |  |  |  | 
COc1ccc(NC2=NC3(CCCC3)N=C(N)N2)cc1 [T-12] |  |  |  |  | less effect | less effect | 
COc1cccc(NC2=NC3(CCCCC3)N=C(N)N2)c1 [T-11] |  |  | decreased colony formation |  | less effect | less effect | relative effectiveness in decreasing colony formation (HeLa cells [11]; Hela cells, among T-3, T-8, T-10, T-11 (FIG. 6A)): least effective
CCCCOc1ccc(NC2=NC3(CCCCC3)N=C(N)N2)cc1 [T-3] |  |  | decreased colony formation | decreased colony formation | accumulate | accumulate | mitotic index (A375 cells [13]): highest mitotic index; percent of nuclei present as clean mitotic spreads (mitotic index) (HeLa cells [6]): increased; percentage of nuclei presenting as mitotic catastrophe (HeLa cells [6]): higher percentage; mitotic index (HeLa cells [6]; selected concentrations (1-10 μM), twice the concentration used for A375, eighteen hours, among T-1 to T-9 (FIG. 3)): highest mitotic index
CCCCOc1ccc(NC2=NC3(CCCC3)N=C(N)N2)cc1 [T-10] |  |  | decreased colony formation | decreased colony formation | at slightly higher concentrations | at slightly higher concentrations | 
